Experimental data published in PMC8780263, “Green by Design: Convergent Synthesis, Computational Analyses, and Activity Evaluation of New FXa Inhibitors Bearing Peptide Triazole Linking Units” (Pharmaceutics, 2021).
Where two headings read alike, the source gives them in different places.

Assays:
HeLa cells = assay: Cell viability analysis, CCK-8 method, HeLa; format: cell-based, human; details: 48 h; 10 mM, 100 μM, 10 μM, 100 nM, 10 nM
Protocol: (§1) The human cell lines (HEK293 and HeLa) applied in the cell viability assays were purchased from ATCC (Manassas, VA, USA). HEK293 and HeLa cell lines were cultivated in Dulbecco’s modified Eagle medium, supplemented with 10% fetal bovine serum, 100 units/mL of penicillin and […] of streptomycin and kept at 37 °C in a humidified atmosphere containing 5% CO2. A 100-μL aliquot of adherent cells was used to seed 96-well cell culture plates at 25,000 cells/well and allowed to adhere for 16 h prior to compound addition. Cells were treated with each compound in DMEM containing 10% FBS for 48 h. Subsequently, 10 μL of Cell Counting Kit-8 reagent (CCK-8; Sigma-Aldrich, Merck KGaA, Darmstadt Germany) was added into each well and incubated for 4 h at 37 °C in a humidified atmosphere containing 5% CO2. The absorbance measurement detected the cell viability at 450 nm in a Synergy H1 microplate reader (Biotek Instruments, Winooski, VT, USA). All experiments were performed in triplicate.
(§2) Cell viability assays were performed with HeLa and HEK293 cells using the CCK-8 method. Compounds 8a, 8k, 8l and 8p were assayed with decreasing concentrations: 10 mM (1), 100 μM (2), 10 μM (3), 100 nM (4) and 10 nM (5) (Figure 6).
(§3) Figure 6 Effect of the selected compounds on cell viability using the CCK-8 assay in (A) HeLa and (B) HEK93 cell lines. Concentrations used were 10 mM (1), 100 μM (2), 10 μM (3), 100 nM (4), and 10 nM (5). The upper and lower lines define ± 2 SD limits from the average value of control wells treated only with the vehicle (DMSO 2%). All values are means ± SD (n = 3). SD: standard deviation.

FXa enzyme = FXa enzyme (Bos taurus, UniProt P00743); assay: FXa in vitro inhibition assay (fluorometric SensoLyte Factor Xa Assay Kit); details: for inhibition at 100 µM: read-out: %Inhibition FXa, inhibition percentage at 100 μM; for %Inhibition FXa: inhibition percentage at 100 μM
FXa enzyme, sequence (P00743 234-492 limits assumed): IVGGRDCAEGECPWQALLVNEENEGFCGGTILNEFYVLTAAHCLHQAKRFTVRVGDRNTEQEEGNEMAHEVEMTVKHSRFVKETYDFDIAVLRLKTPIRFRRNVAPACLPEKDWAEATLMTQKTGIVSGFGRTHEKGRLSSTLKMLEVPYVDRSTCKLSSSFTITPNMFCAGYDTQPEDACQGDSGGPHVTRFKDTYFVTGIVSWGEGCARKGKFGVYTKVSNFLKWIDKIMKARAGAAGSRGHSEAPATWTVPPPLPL
FXa enzyme, sequence (P00743 41-180 partner limits assumed): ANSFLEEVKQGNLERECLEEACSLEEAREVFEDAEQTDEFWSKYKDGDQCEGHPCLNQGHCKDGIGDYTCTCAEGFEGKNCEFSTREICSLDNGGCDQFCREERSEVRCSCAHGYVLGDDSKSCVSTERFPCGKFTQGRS

HEK293 cells = assay: Cell viability analysis, CCK-8 method, HEK293; format: cell-based, human; details: 48 h; 10 mM, 100 μM, 10 μM, 100 nM, 10 nM
Protocol: as §1, §2, §3

With `O=C(Cn1cc(-c2ccccc2)nn1)Nc1ccc(N2CCCCC2=O)c(F)c1` [Compound 8a] the “toxicity in HeLa cells (cell viability, CCK-8)” value (“toxicity in HeLa cells” below) (HeLa cells) was “no signs of toxicity”, the IC50 (FXa enzyme) was 41.2 ± 1.2 µM and the inhibition at 100 µM (FXa enzyme) was at least 50%. The “cell mortality in HEK-293 cells (cell viability, CCK-8)” value (“cell mortality in HEK-293 cells” for short) (HEK293 cells) was “did not show any cell mortality”.

`CC(C)(C)OC(=O)N1CCN(c2ccc(NC(=O)Cn3cc(-c4ccccc4)nn3)cc2F)C(=O)C1` [Compound 8b] gave an inhibition at 100 µM (FXa enzyme) of 24% and a melting point of 195 to 196 °C.

For `O=C(Cn1cc(-c2ccccc2)nn1)Nc1ccc(N2CCOCC2=O)c(F)c1` [Compound 8c], the inhibition at 100 µM (FXa enzyme) was 17% and the melting point was 254 to 255 °C.

With `O=C(Cn1cc(-c2ccccc2)nn1)Nc1ccc(N2CCSCC2=O)c(F)c1` [Compound 8d] the inhibition at 100 µM (FXa enzyme) was 33% and the melting point was 276 to 277 °C.

In the case of `O=C(Cn1cc(-c2ccc(F)cc2)nn1)Nc1ccc(N2CCCCC2=O)c(F)c1` [Compound 8e], the inhibition at 100 µM (FXa enzyme) is reported as 17%.

In the case of `CC(C)(C)OC(=O)N1CCN(c2ccc(NC(=O)Cn3cc(-c4ccc(F)cc4)nn3)cc2F)C(=O)C1` [Compound 8f], the “%Inhibition FXa” value (FXa enzyme) is reported as 44%.

`O=C(Cn1cc(-c2ccc(F)cc2)nn1)Nc1ccc(N2CCOCC2=O)c(F)c1` [Compound 8g] gave an inhibition at 100 µM (FXa enzyme) of 36% and a melting point of 273 to 274 °C.

Work on `O=C(Cn1cc(-c2ccc(F)cc2)nn1)Nc1ccc(N2CCSCC2=O)c(F)c1` [Compound 8h] yielded an inhibition at 100 µM (FXa enzyme) of 25% and a melting point of 266 to 267 °C.

Compound `O=C(Cn1cc(-c2ccc(Cl)cc2)nn1)Nc1ccc(N2CCCCC2=O)c(F)c1` [Compound 8i] has an inhibition at 100 µM (FXa enzyme) of 29% and a melting point of 302 to 303 °C.

For `CC(C)(C)OC(=O)N1CCN(c2ccc(NC(=O)Cn3cc(-c4ccc(Cl)cc4)nn3)cc2F)C(=O)C1` [Compound 8j], the “%Inhibition FXa” value (FXa enzyme) was 23%.

In the case of `O=C(Cn1cc(-c2ccc(Cl)cc2)nn1)Nc1ccc(N2CCOCC2=O)c(F)c1` [Compound 8k], the “toxicity in HeLa cells” value (HeLa cells) is reported as “no signs of toxicity”, the IC50 (FXa enzyme) is reported as 76.2 ± 16.9 µM and the inhibition at 100 µM (FXa enzyme) is reported as at least 50%. For the same compound, the “cell mortality in HEK-293 cells” value (HEK293 cells) was “did not show any cell mortality”.

In the case of `O=C(Cn1cc(-c2ccc(Cl)cc2)nn1)Nc1ccc(N2CCSCC2=O)c(F)c1` [Compound 8l], the “toxicity in HeLa cells” value (HeLa cells) is reported as “no signs of toxicity”, the IC50 (FXa enzyme) is reported as 52.9 ± 5.5 µM and the inhibition at 100 µM (FXa enzyme) is reported as at least 50%. For the same compound, the “cell mortality in HEK-293 cells” value (HEK293 cells) was “did not show any cell mortality”.

In the case of `O=C(Cn1cc(-c2ccc(Br)cc2)nn1)Nc1ccc(N2CCCCC2=O)c(F)c1` [Compound 8m], the inhibition at 100 µM (FXa enzyme) is reported as 29% and the melting point is reported as 300 to 301 °C.

In the case of `CC(C)(C)OC(=O)N1CCN(c2ccc(NC(=O)Cn3cc(-c4ccc(Br)cc4)nn3)cc2F)C(=O)C1` [Compound 8n], the “%Inhibition FXa” value (FXa enzyme) is reported as 22%.

Compound `O=C(Cn1cc(-c2ccc(Br)cc2)nn1)Nc1ccc(N2CCOCC2=O)c(F)c1` [Compound 8o] has an inhibition at 100 µM (FXa enzyme) of 37% and a melting point of 302 to 303 °C.

For `O=C(Cn1cc(-c2ccc(Br)cc2)nn1)Nc1ccc(N2CCSCC2=O)c(F)c1` [Compound 8p], the “toxicity in HeLa cells” value (HeLa cells) was “no signs of toxicity”, the IC50 (FXa enzyme) was 17.2 ± 0.8 µM and the inhibition at 100 µM (FXa enzyme) was at least 50%. The “cell mortality in HEK-293 cells” value (HEK293 cells) was “did not show any cell mortality”.

`Cc1ccc(-c2cn(CC(=O)Nc3ccc(N4CCCCC4=O)c(F)c3)nn2)cc1` [Compound 8q] gave an inhibition at 100 µM (FXa enzyme) of 21% and a melting point of 301 to 302 °C.

Work on `Cc1ccc(-c2cn(CC(=O)Nc3ccc(N4CCN(C(=O)OC(C)(C)C)CC4=O)c(F)c3)nn2)cc1` [Compound 8r] yielded an inhibition at 100 µM (FXa enzyme) of 27% and a melting point of 204 to 205 °C.

With `Cc1ccc(-c2cn(CC(=O)Nc3ccc(N4CCOCC4=O)c(F)c3)nn2)cc1` [Compound 8s] the inhibition at 100 µM (FXa enzyme) was 37% and the melting point was 282 to 283 °C.

`Cc1ccc(-c2cn(CC(=O)Nc3ccc(N4CCSCC4=O)c(F)c3)nn2)cc1` [Compound 8t] gave an inhibition at 100 µM (FXa enzyme) of 31% and a melting point of 285 to 286 °C.

In the case of `CCOC(=O)c1ccc(OC(=O)CCCCCN=C(N)N)cc1.CS(=O)(=O)O` [Gabexate mesylate, reference compound], the IC50 (FXa enzyme; FXa, dilution series 1 nM to 100 μM, triplicates) is reported as 0.34 ± 0.1 µM and the “%Inhibition FXa” value (FXa enzyme) is reported as 93%.
